Reference: US10954287B2, “Ras binding peptides and methods of use” (Ra Pharmaceuticals, Inc., priority 2016, dated 2021)
*1 amine or outer side, *2 acyl side, *3 side chain or, on linkers, in order; H or OH if unused. Where a SMILES comes first, the peptide text is derived from it. Bridges are numbered along the chain shown (N, C = ends). [ ]: non-standard residue; d: D form. The star is where a group is joined. 4‑(dimethylamino)benzoyl‑d4 = DMABZK2: N6-(4-(dimethylamino)benzoyl-2,3,5,6-d4)-L-lysine, [2H]c1c([2H])c(N(C)C)c([2H])c([2H])c1C(=O)*; m‑xylylene = m-xylylene thioether bridge between Cys; Trp(7-aza) = N[C@@H](Cc1c[nH]c2ncccc12)C(=O)O; NMePhe(4-F) = CN[C@@H](Cc1ccc(F)cc1)C(=O)O; Alexa Fluor 594 = N-terminal label (ALF); mXylylene = c1cc(C[*:1])cc(C[*:2])c1; Phg = N[C@H](C(=O)O)c1ccccc1; Tle = CC(C)(C)[C@H](N)C(=O)O; NMeA = CN[C@@H](C)C(=O)O; Pra = C#CC[C@H](N)C(=O)O; Nva = CCC[C@H](N)C(=O)O; PEG1 = NCCOCCC(=O)O; Ahx = NCCCCCC(=O)O; Sar = CNCC(=O)O

Test system: GMPPNP-loaded H-Ras or GTP-loaded K-Ras
Assay: Fluorescence polarization competition assay with TAMRA-labeled probe R4007
Assay type: binding, human
Details: 120 nM Ras, 30 nM probe R4007, 60 minutes at room temperature; read-out: Probe displacement (nM IC50)
In short: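 120 nM GMPPNP-loaded H-Ras or GTP-loaded K-Ras was preincubated with 30 nM TAMRA-labeled R4007 probe for 20 min at room temperature in Tris pH 7.5 buffer with MgCl2, EDTA and Triton X-100. Serially diluted competitor was then added for 60 min. Polarization was read at 535/595 nm, with Ki from a one-site Ki fit and IC50 from probe displacement.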

With `CCC[C@H](N)C(=O)N[C@H]1CSCc2cccc(c2)CSC[C@@H](C(N)=O)NC(=O)CN(C)C(=O)[C@H](Cc2ccc(F)cc2)N(C)C(=O)[C@H](Cc2ccc(O)cc2)NC(=O)[C@H](Cc2c[nH]c3ncccc23)NC(=O)[C@H](c2ccccc2)NC(=O)[C@H](C)N(C)C(=O)[C@H](Cc2cnc[nH]2)NC(=O)[C@H](CCCCN)NC(=O)[C@H](C(C)(C)C)NC(=O)[C@H](Cc2ccc(O)cc2)NC1=O` (relative stereo) [Compound R4002, NVA-CYS*-TYR-TBG-LYS-HIS-NMA-PHG-7AW-TYR-MFF-SAR-CYS*-NH2] the IC50 was 7.92 nM.

Compound “ALF-NVA-CYS*-TYR-NVA-PHG-MFF-THR-PRO-7AW-CYS*-7AW-GLU-GLU-NH2 ({Alexa Fluor 594}-[Nva]CY[Nva][Phg][NMePhe(4-F)]TP[Trp(7-aza)]C[Trp(7-aza)]EE-NH2; linker 2-10 via mXylylene) [Compound R4154, cyclized by a m-xylylene thioether bridge]” has an IC50 of 37400 nM.

Compound `CCC[C@H](NC(C)=O)C(=O)N[C@H]1CSCc2cccc(c2)CSC[C@@H](C(N)=O)NC(=O)[C@H](Cc2c[nH]cn2)NC(=O)[C@H](CCC)NC(=O)[C@H](Cc2c[nH]c3ncccc23)NC(=O)[C@H](CCC(=O)O)NC(=O)[C@H](Cc2c[nH]c3ncccc23)NC(=O)[C@H](Cc2c[nH]c3ncccc23)NC(=O)[C@H]([C@@H](C)O)NC(=O)[C@H](Cc2c[nH]cn2)NC(=O)[C@H](Cc2ccc(O)cc2)NC(=O)[C@H](C(C)(C)C)NC1=O` (relative stereo) [Compound R4100, ACE-NVA-CYS*-TBG-TYR-HIS-THR-7AW-7AW-GLU-7AW-NVA-HIS-CYS*-NH2] has an IC50 of 1.06 nM.

`C#CC[C@@H]1NC(=O)CN(C)C(=O)[C@H](Cc2ccc(F)cc2)N(C)C(=O)[C@H](Cc2ccc(O)cc2)NC(=O)[C@H](Cc2c[nH]c3ncccc23)NC(=O)[C@H](c2ccccc2)NC(=O)[C@H](C)N(C)C(=O)[C@H](Cc2c[nH]cn2)NC(=O)[C@H](CCCCN)NC(=O)[C@H](C(C)(C)C)NC(=O)[C@H](Cc2ccc(O)cc2)NC(=O)CCCCCNC1=O` [Compound R4137, AHX*-TYR-TBG-LYS-HIS-NMA-PHG-7AW-TYR-MFF-SAR-PRG*] (cyclo([Ahx]Y[Tle]KH[NMeA][Phg][Trp(7-aza)]Y[NMePhe(4-F)][Sar][Pra])) gave an IC50 of 411 nM.

`CCC[C@H](NC(C)=O)C(=O)N[C@H]1CSCc2cccc(c2)CSC[C@@H](C(=O)NCC(=O)NCC(=O)NCC(=O)N[C@@H](CS)C(=O)N[C@H](C(=O)N[C@H](C(=O)N[C@@H](CCSC)C(=O)O)[C@@H](C)CC)C(C)C)NC(=O)CN(C)C(=O)[C@H](C)N(C)C(=O)[C@H](Cc2ccc(O)cc2)NC(=O)[C@H](Cc2c[nH]c3ncccc23)NC(=O)[C@H](C)NC(=O)[C@H](C)N(C)C(=O)[C@H](Cc2c[nH]cn2)NC(=O)[C@H](CCCCN)NC(=O)[C@H](C(C)(C)C)NC(=O)[C@H](Cc2ccc(O)cc2)NC1=O` (relative stereo) [Compound R4143, ACE-NVA-CYS*-TYR-TBG-LYS-HIS-NMA-ALA-7AW-TYR-NMA-SAR-CYS*-GLY-GLY-GLY-CYS-VAL-ILE-MET] gave an IC50 of 1640 nM.

In the case of `CCC[C@H](NC(C)=O)C(=O)N[C@H]1CSCc2cccc(c2)CSC[C@@H](C(=O)N[C@H](CO)C(=O)N[C@@H](CCCCN)C(=O)NCC(=O)N[C@@H](CS)C(=O)N[C@H](C(=O)N[C@H](C(=O)N[C@@H](CCSC)C(=O)O)[C@@H](C)CC)C(C)C)NC(=O)CN(C)C(=O)[C@H](Cc2ccc(F)cc2)N(C)C(=O)[C@H](Cc2ccc(O)cc2)NC(=O)[C@H](Cc2c[nH]c3ncccc23)NC(=O)[C@H](c2ccccc2)NC(=O)[C@H](C)N(C)C(=O)[C@H](Cc2c[nH]cn2)NC(=O)[C@H](CCCCN)NC(=O)[C@H](C(C)(C)C)NC(=O)[C@H](Cc2ccc(O)cc2)NC1=O` (relative stereo) [Compound R4105, ACE-NVA-CYS*-TYR-TBG-LYS-HIS-NMA-PHG-7AW-TYR-MFF-SAR-CYS*-DSER-LYS-GLY-CYS-VAL-ILE-MET], the IC50 is reported as 3.31 nM.

`CCC[C@H](NC(=O)CCCC(=O)O)C(=O)N[C@H]1CSCc2cccc(c2)CSC[C@@H](C(N)=O)NC(=O)CN(C)C(=O)[C@H](Cc2ccc(F)cc2)N(C)C(=O)[C@H](Cc2ccc(O)cc2)NC(=O)[C@H](Cc2c[nH]c3ncccc23)NC(=O)[C@H](c2ccccc2)NC(=O)[C@H](C)N(C)C(=O)[C@H](Cc2c[nH]cn2)NC(=O)[C@H](CCCCN)NC(=O)[C@H](C(C)(C)C)NC(=O)[C@H](Cc2ccc(O)cc2)NC1=O` (relative stereo) [Compound R4103, GLA-NVA-CYS*-TYR-TBG-LYS-HIS-NMA-PHG-7AW-TYR-MFF-SAR-CYS*-NH2] showed an IC50 of 2 nM.

In the case of “ACE-NVA-CYS*-TYR-TBG-DMABZK2-HIS-NMA-PHG-7AW-TYR-MFF-SAR-CYS*-NH2 (Ac-[Nva]CY[Tle]K(4‑(dimethylamino)benzoyl‑d4)H[NMeA][Phg][Trp(7-aza)]Y[NMePhe(4-F)][Sar]C-NH2; linker 2-13 via m‑xylylene) [Compound R4150, cyclized by a m-xylylene thioether bridge]”, the IC50 is reported as 7640 nM.

`C=CC(=O)NCc1cn(C[C@H](NC(=O)[C@H](C)NC(=O)[C@@H](NC(=O)[C@H](Cc2ccc(O)cc2)NC(=O)[C@H](CO)NC(=O)[C@H](CCC)NC(C)=O)C(C)(C)C)C(=O)N(C)[C@@H](C)C(=O)NC(C(=O)N[C@@H](Cc2c[nH]c3ncccc23)C(=O)N[C@@H](Cc2ccc(O)cc2)C(=O)N(C)[C@@H](Cc2ccc(F)cc2)C(=O)N(C)CC(=O)N[C@@H](CO)C(N)=O)c2ccccc2)nn1` (stereo partly shown) [Compound R4005, ACE-NVA-SER-TYR-TBG-ALA-DAPTZAC1-NMA-RPHG-7AW-TYR-MFF-SAR-SER-NH2] showed an IC50 of 2070 nM.

`CCC[C@H](NC(C)=O)C(=O)N[C@H]1CSCc2cccc(c2)CSC[C@@H](C(N)=O)NC(=O)CN(C)C(=O)[C@H](Cc2ccc(F)cc2)N(C)C(=O)[C@H](Cc2ccc(O)cc2)NC(=O)[C@H](Cc2c[nH]c3ncccc23)NC(=O)[C@H](c2ccccc2)NC(=O)[C@H](C)N(C)C(=O)[C@H](Cc2c[nH]cn2)NC(=O)[C@H](CCCCN)NC(=O)[C@H](C(C)(C)C)NC(=O)[C@H](C)NC1=O` (relative stereo) [Compound R4152, ACE-NVA-CYS*-ALA-TBG-LYS-HIS-NMA-PHG-7AW-TYR-MFF-SAR-CYS*-NH2] showed an IC50 of 28300 nM.

Compound `CCC[C@H](NC(C)=O)C(=O)N[C@H]1CSCc2cccc(c2)CSC[C@@H](C(N)=O)NC(=O)[C@H](C)N(C)C(=O)[C@H](Cc2ccc(F)cc2)N(C)C(=O)[C@H](Cc2ccc(O)cc2)NC(=O)[C@H](Cc2c[nH]c3ncccc23)NC(=O)[C@@H](c2ccccc2)NC(=O)[C@H](C)N(C)C(=O)[C@H](Cc2c[nH]cn2)NC(=O)[C@H](CCCCN)NC(=O)[C@H](C(C)(C)C)NC(=O)[C@H](Cc2ccc(O)cc2)NC1=O` (relative stereo) [Compound R4121, ACE-NVA-CYS*-TYR-TBG-LYS-HIS-NMA-DPHG-7AW-TYR-MFF-NMA-CYS*-NH2] has an IC50 of 73 nM.

`CCC[C@H](NC(C)=O)C(=O)N[C@H]1CSCc2cccc(c2)CSC[C@@H](C(=O)O)NC(=O)CN(C)C(=O)[C@H](Cc2ccc(F)cc2)N(C)C(=O)[C@H](Cc2ccc(O)cc2)NC(=O)[C@H](Cc2c[nH]c3ncccc23)NC(=O)[C@H](c2ccccc2)NC(=O)[C@H](C)N(C)C(=O)[C@H](Cc2c[nH]cn2)NC(=O)[C@H](CCCCN)NC(=O)[C@H](C(C)(C)C)NC(=O)[C@H](Cc2ccc(O)cc2)NC1=O` (relative stereo) [Compound R4108, ACE-NVA-CYS*-TYR-TBG-LYS-HIS-NMA-PHG-7AW-TYR-MFF-SAR-CYS*] showed an IC50 of 9.45 nM.

With `CCC[C@H](NC(C)=O)C(=O)N[C@H]1CSCc2cccc(c2)CSC[C@@H](C(N)=O)NC(=O)CN(C)C(=O)[C@H](Cc2ccc(F)cc2)N(C)C(=O)[C@H](Cc2ccc(O)cc2)NC(=O)[C@H](Cc2c[nH]c3ncccc23)NC(=O)[C@H](c2ccccc2)NC(=O)[C@H](C)N(C)C(=O)[C@H](Cc2c[nH]cn2)NC(=O)[C@H](CCCCN)NC(=O)[C@H](C(C)(C)C)NC(=O)[C@H](Cc2ccc(O)cc2)N(C)C1=O` (relative stereo) [Compound R4117, ACE-NVA-CYS*-NMY-TBG-LYS-HIS-NMA-PHG-7AW-TYR-MFF-SAR-CYS*-NH2] the IC50 was 48.3 nM.

For `CCC[C@H](NC(C)=O)C(=O)N[C@H]1CSCc2cccc(c2)CSC[C@@H](C(=O)NCC(=O)NCC(=O)NCC(=O)N[C@@H](CS)C(=O)N[C@H](C(=O)N[C@H](C(=O)N[C@@H](CCSC)C(=O)O)[C@@H](C)CC)C(C)C)NC(=O)CN(C)C(=O)[C@H](Cc2ccc(F)cc2)N(C)C(=O)[C@H](Cc2ccc(O)cc2)NC(=O)[C@H](Cc2c[nH]c3ncccc23)NC(=O)[C@H](c2ccccc2)NC(=O)[C@H](C)N(C)C(=O)[C@H](Cc2c[nH]cn2)NC(=O)[C@H](CCCCN)NC(=O)[C@H](C(C)(C)C)NC(=O)[C@H](Cc2ccc(O)cc2)NC1=O` (relative stereo) [Compound R4131, ACE-NVA-CYS*-TYR-TBG-LYS-HIS-NMA-PHG-7AW-TYR-MFF-SAR-CYS*-GLY-GLY-GLY-CYS-VAL-ILE-MET], the IC50 was 278 nM.

`CCC[C@H](NC(C)=O)C(=O)N[C@H]1CSCc2cccc(c2)CSC[C@@H](C(=O)N[C@H](CO)C(=O)N[C@H](C)C(=O)N[C@@H](CCCCN)C(=O)N[C@@H](CSSC(C)(C)C)C(=O)N[C@H](C(=O)N[C@H](C(=O)N[C@@H](CCSC)C(=O)O)[C@@H](C)CC)C(C)C)NC(=O)CN(C)C(=O)[C@H](Cc2ccc(F)cc2)N(C)C(=O)[C@H](Cc2ccc(O)cc2)NC(=O)[C@H](Cc2c[nH]c3ncccc23)NC(=O)[C@H](c2ccccc2)NC(=O)[C@H](C)N(C)C(=O)[C@H](Cc2c[nH]cn2)NC(=O)[C@H](CCCCN)NC(=O)[C@H](C(C)(C)C)NC(=O)[C@H](Cc2ccc(O)cc2)NC1=O` (relative stereo) [Compound R4111, ACE-NVA-CYS*-TYR-TBG-LYS-HIS-NMA-PHG-7AW-TYR-MFF-SAR-CYS*-DSER-DALA-LYS-TDSPA-VAL-ILE-MET] was tested, and the IC50 was 20.8 nM.

Compound `C#CC[C@@H]1NC(=O)CN(C)C(=O)[C@H](Cc2ccc(F)cc2)N(C)C(=O)[C@H](Cc2ccc(O)cc2)NC(=O)[C@H](Cc2c[nH]c3ncccc23)NC(=O)[C@H](c2ccccc2)NC(=O)[C@H](C)N(C)C(=O)[C@H](Cc2c[nH]cn2)NC(=O)[C@H](CCCCN)NC(=O)[C@H](C(C)(C)C)NC(=O)[C@H](Cc2ccc(O)cc2)NC(=O)CCOCCNC1=O` [Compound R4139, AEP*-TYR-TBG-LYS-HIS-NMA-PHG-7AW-TYR-MFF-SAR-PRG*] (cyclo([PEG1]Y[Tle]KH[NMeA][Phg][Trp(7-aza)]Y[NMePhe(4-F)][Sar][Pra])) has an IC50 of 522 nM.
